From BindingDB's records for doi:10.1074/jbc.M109.039511 (University of Florida, 2010) come the findings set out here.

Structures can show the parent of a compound that is named as a salt.

The assay has as its target T1, Acid phosphatase (Francisella tularensis subsp. tularensis (strain SCHU S4 / Schu 4), UniProt Q5NIC0).
T1 sequence (Q5NIC0 whole entry): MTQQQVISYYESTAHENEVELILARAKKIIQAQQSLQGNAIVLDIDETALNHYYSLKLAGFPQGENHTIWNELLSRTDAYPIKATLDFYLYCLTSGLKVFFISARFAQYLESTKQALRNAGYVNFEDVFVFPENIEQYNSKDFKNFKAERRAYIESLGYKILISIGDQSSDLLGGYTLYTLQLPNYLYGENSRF
Put plainly: Inhibitor Screening Assay. As for the experimental part:
The inhibitor screening assays were performed in 96-well format with 1152 small molecules found in the Prestwick chemical library (Prestwick Chemical, France).
A word on the Ki: it is the dissociation constant of the complex between target and ligand, obtained from inhibition or displacement. A high value points to weaker binding. In turn, `O=c1c(O)c(-c2cc(O)c(O)c(O)c2)oc2cc(O)cc(O)c12` showed a Ki of 154 µM.

Regarding `O=c1c(O)c(-c2ccc(O)cc2)oc2cc(O)cc(O)c12`, the Ki turned out to be 190 µM.

`COc1ccc(CC2c3cc(OC)c(OC)cc3CC[N+]2(C)CCC(=O)OCCCCCOC(=O)CC[N+]2(C)CCc3cc(OC)c(OC)cc3C2Cc2ccc(OC)c(OC)c2)cc1OC` (stereo not drawn) came in with a Ki of 342 µM.

As to `O=C1OC(C(O)CO)=C(O)C1OP(=O)(O)O` [2-phospho-L-ascorbic acid], the Ki came out at 0.32 µM.

On to `CCN(CC)CCNC(=O)c1ccc(N)cc1` [4-amino-N-[2-(diethylamino)ethyl]benzamide;hydrochloride], for which the Ki worked out at 14.8 µM.

In the case of `CC1(C)OC[C@@H]([C@H]2OC(=O)C(=O)C2O)O1` (stereo partly drawn) [(+)-5,6-O-Isopropylidene-L-ascorbic acid], the Ki came out at 3.27 µM.

On to `CCCCCCCCCCCCCCCC[N+](C)(C)CCN(Cc1ccc(OC)cc1)c1ncccn1` [SMR001233380], for which the Ki amounted to 0.59 µM.

`OC[C@H](O)c1oc(O)c(O)c1O` [ascorbic acid] came in with a Ki of 380 µM.
